Results published in ChEMBL document CHEMBL1141981, “Studies on synthesis and evaluation of quantitative structure-activity relationship of 5-[(3'-chloro-4',4'-disubstituted-2-oxoazetidinyl)(N-nitro)amino]-6-hydroxy-3-alkyl/aryl[1,3]azaphospholo[1,5-a]pyridin-1-yl-phosphorus dichlorides” (2005).
Where “and” joins values, the source holds several entries; their conditions need not be identical. Equal values may be shown once.

Tests used:
Format in all cases: functional
[1] = system: Staphylococcus aureus; assay: Minimum inhibitory concentration against Staphylococcus aureus
[2] = system: Bacillus subtilis; assay: Minimum inhibitory concentration against Bacillus subtilis
[3] = Minimum inhibitory concentration against Candida albicans

| SMILES | -Log MIC [1] | -Log MIC [2] | -Log MIC [3] |
| --- | --- | --- | --- |
| CC1(C)S[C@@H]2[C@H](NC(=O)[C@H](N)c3ccccc3)C(=O)N2[C@H]1C(=O)O [AMPICILLIN] | 3.097 ug ml-1 | 4.606 ug ml-1 |  |
| Clc1ccccc1C(c1ccccc1)(c1ccccc1)n1ccnc1 |  |  | 3.14 µg ml-1 and 3.24 µg ml-1 |
